According to ChEMBL document CHEMBL1201862, “PubChem BioAssay data set” (2004):
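Briefly, cells in 96-well plates were exposed to five compound concentrations for 48 h, and endpoints were estimated by linear interpolation. GI50 is the concentration that inhibits growth by half.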 The source made the active and inactive calls. No stated cut-off is given here; in the data, active = GI50 up to about 1.1 µM and inactive = higher.

Columns and labels:
Assay in all cases: NCI tumour cell line growth inhibition, 48 h
[1] = test system: TK-10
[2] = test system: MCF7
[3] = test system: SR
[4] = test system: NCI-H522
[5] = test system: A498
[6] = test system: OVCAR-4
[7] = test system: SK-MEL-5
[8] = test system: HCT-116
[9] = test system: T47D
[10] = test system: A549
[11] = test system: OVCAR-3
[12] = test system: KM12
[13] = test system: HT-29
[14] = test system: CCRF-CEM
[15] = test system: Malme-3M
[16] = test system: UACC-62
[17] = test system: SW-620
[18] = test system: RPMI-8226
[19] = test system: UO-31
[20] = test system: IGROV-1

SMILES	GI50 [1]	GI50 [2]	GI50 [3]	GI50 [4]	GI50 [5]	GI50 [6]	GI50 [7]	GI50 [8]	GI50 [9]	GI50 [10]	GI50 [11]	GI50 [12]	GI50 [13]	GI50 [14]	GI50 [15]	GI50 [16]	GI50 [17]	GI50 [18]	GI50 [19]	GI50 [20]
COC(=O)C1Cc2cccc(C)c2C1 (stereo not given)	> 100 µM (inactive)	19.1 µM (inactive)	79.3 µM (inactive)	51.8 µM (inactive)	> 100 µM (inactive)	> 100 µM (inactive)	> 100 µM (inactive)	> 100 µM (inactive)	> 100 µM (inactive)	> 100 µM (inactive)	> 100 µM (inactive)	> 100 µM (inactive)	> 100 µM (inactive)	66.5 µM (inactive)	> 100 µM (inactive)	> 100 µM (inactive)	> 100 µM (inactive)	93.5 µM (inactive)	> 100 µM (inactive)	> 100 µM (inactive)
CCCC(=O)OCC1OC(n2cc(F)c(=O)[nH]c2=O)CC1O (stereo not given)	1.26 µM (inactive)	0.00463 µM (active)	0.0265 µM (active)	3.84 µM (inactive)	0.489 µM (active)	> 10 µM (inactive)	0.221 µM (active)	0.614 µM (active)	6.44 µM (inactive)	0.0489 µM (active)	> 2.11 µM (inactive)	> 10 µM (inactive)	0.721 µM (active)	0.0356 µM (active)	> 5.06 µM (inactive)	0.126 µM (active)	> 10 µM (inactive)	0.429 µM (active)	0.094 µM (active)	> 8.09 µM (inactive)
CCOc1ccc2ccc3cccnc3c2n1	34.2 µM (inactive)	18.4 µM (inactive)	18.9 µM (inactive)	> 100 µM (inactive)	21 µM (inactive)	69.2 µM (inactive)	32.7 µM (inactive)	34 µM (inactive)	32.7 µM (inactive)	61 µM (inactive)	21.9 µM (inactive)	45.4 µM (inactive)	34.1 µM (inactive)	59 µM (inactive)	97.1 µM (inactive)	27 µM (inactive)	62.7 µM (inactive)	23.2 µM (inactive)	64 µM (inactive)	38.5 µM (inactive)
COc1cccc(OC)c1/C=C1\OC(=O)c2cccc(OC)c21	11.5 µM (inactive)	3.14 µM (inactive)	0.92 µM (active)	2.5 µM (inactive)	4.14 µM (inactive)	> 30.1 µM (inactive)	3.13 µM (inactive)	3.87 µM (inactive)	5.33 µM (inactive)	7.36 µM (inactive)	2.51 µM (inactive)	1.74 µM (inactive)	2.11 µM (inactive)	3.84 µM (inactive)	3.42 µM (inactive)	2.62 µM (inactive)	3.37 µM (inactive)	3.46 µM (inactive)	5.47 µM (inactive)	4.71 µM (inactive)
O=[N+]([O-])c1c2nc3n(c2cc2c1nc1n2CCC1)CCC3	> 100 µM (inactive)	> 100 µM (inactive)	> 100 µM (inactive)	> 100 µM (inactive)	> 100 µM (inactive)	> 100 µM (inactive)	> 100 µM (inactive)	> 100 µM (inactive)	> 100 µM (inactive)	> 100 µM (inactive)	> 100 µM (inactive)	> 100 µM (inactive)	> 100 µM (inactive)	> 100 µM (inactive)	93.1 µM (inactive)	> 100 µM (inactive)	> 100 µM (inactive)	> 100 µM (inactive)	> 100 µM (inactive)	> 100 µM (inactive)
CCOC(=O)N/N=C(\CC)NO	> 100 µM (inactive)	> 100 µM (inactive)	> 100 µM (inactive)	> 100 µM (inactive)	> 100 µM (inactive)	> 100 µM (inactive)	> 100 µM (inactive)	> 100 µM (inactive)	> 100 µM (inactive)	> 100 µM (inactive)	> 100 µM (inactive)	> 100 µM (inactive)	> 100 µM (inactive)	> 100 µM (inactive)	> 100 µM (inactive)	> 100 µM (inactive)	> 100 µM (inactive)	> 100 µM (inactive)	> 100 µM (inactive)	> 100 µM (inactive)
COc1cc([C@@H]2c3cc4c(cc3[C@@H](Nc3ccccc3C(=O)c3ccccc3)[C@H]3COC(=O)[C@H]23)OCO4)cc(OC)c1OC	> 100 µM (inactive)	0.379 µM (active)	0.332 µM (active)	0.31 µM (active)	0.149 µM (active)	> 27.2 µM (inactive)	0.475 µM (active)	0.321 µM (active)	> 100 µM (inactive)	0.753 µM (active)	0.785 µM (active)	0.3 µM (active)	0.314 µM (active)	0.347 µM (active)	0.458 µM (active)	0.362 µM (active)	0.471 µM (active)	0.381 µM (active)	0.776 µM (active)	0.836 µM (active)
O=[N+]([O-])C(=C(Sc1ccccc1)Sc1ccccc1)C(Cl)=C(Cl)Cl	0.0948 µM (active)	0.21 µM (active)	0.0975 µM (active)	0.0776 µM (active)	3.44 µM (inactive)	0.401 µM (active)	1.69 µM (inactive)	0.0597 µM (active)	0.278 µM (active)	2.22 µM (inactive)	0.373 µM (active)	2.44 µM (inactive)	0.123 µM (active)	0.0189 µM (active)	0.458 µM (active)	0.75 µM (active)	< 0.0391 µM (active)	0.0292 µM (active)	0.171 µM (active)	1.19 µM (inactive)
C/C=C/[C@H]1O[C@@](O)([C@@H](C)[C@H](O)[C@H](C)[C@H]2OC(=O)/C(OC)=C/C(C)=C/[C@@H](C)[C@@H](O)[C@@H](CC)[C@@H](O)[C@H](C)C/C(C)=C/C=C/[C@@H]2OC)C[C@H](OC2CC(O)C(O)C(C)O2)[C@@H]1C (stereo not given in full)	9.48 µM (inactive)	< 0.0075 µM (active)	< 0.0075 µM (active)	< 0.0075 µM (active)	5.01 µM (inactive)	0.244 µM (active)	< 0.0075 µM (active)	< 0.0075 µM (active)	< 0.0075 µM (active)	< 0.0075 µM (active)	< 0.0075 µM (active)	< 0.0075 µM (active)	< 0.0075 µM (active)	< 0.0075 µM (active)	< 0.0075 µM (active)	< 0.0075 µM (active)	< 0.0075 µM (active)	< 0.0075 µM (active)	< 0.0075 µM (active)	< 0.0075 µM (active)
C=CCN(C(C)=O)c1cc(OCc2ccccc2)c2c(c1)c(C)cn2S(=O)(=O)c1ccccc1	39.6 µM (inactive)	3.93 µM (inactive)	0.0566 µM (active)	4.08 µM (inactive)	5.16 µM (inactive)	5.42 µM (inactive)	4.37 µM (inactive)	3.85 µM (inactive)	3.26 µM (inactive)	4.06 µM (inactive)	4.15 µM (inactive)	3.85 µM (inactive)	5.55 µM (inactive)	4.11 µM (inactive)	6.58 µM (inactive)	7.1 µM (inactive)	5.46 µM (inactive)	2.47 µM (inactive)	2.86 µM (inactive)	10 µM (inactive)
O=C(NNC(=O)c1ccccc1O)c1ccccc1O	5.97 µM (inactive)	0.43 µM (active)	0.0366 µM (active)	0.112 µM (active)	19.8 µM (inactive)	0.0621 µM (active)	0.607 µM (active)	0.0446 µM (active)	0.0625 µM (active)	0.0361 µM (active)	0.258 µM (active)	0.413 µM (active)	6.71 µM (inactive)	0.0173 µM (active)	0.0393 µM (active)	0.0495 µM (active)	0.108 µM (active)	0.326 µM (active)	0.022 µM (active)	< 0.0255 µM (active)
